Reference: ChEMBL document CHEMBL1121645, “Pyrimidine acyclic nucleosides, 1-[(2-Hydroxyethoxy)methyl]pyrimidines as candidate antivirals” (J Med Chem, 1981)

Key:
[1] = system: Thymidine kinase (Human alphaherpesvirus 1); assay: Compound was evaluated for the inhibitory activity against HSV-1 encoded thymidine kinase at 300 uM
[2] = system: Thymidine kinase (Human alphaherpesvirus 1); assay: Compound was evaluated for the inhibitory activity against HSV-1 encoded thymidine kinase at 300 uM; 45-56% inhibition

Row | inhibition [1] [%] | inhibition [2] [%] | SMILES
1 | 56 | – | O=c1[nH]c(=O)n(COCCO)cc1C(F)(F)F
2 | – | 45 | O=C(OCCOCn1ccc(=O)[nH]c1=O)c1ccccc1
3 | 56 | – | O=c1[nH]c(=O)n(COCCO)cc1I
